The results in this text go back to patent US20240197897A1, “HETEROTANDEM BICYCLIC PEPTIDE COMPLEXES” (Bicycle Tx Limited, priority 2021, published 2024).

Starred links: 1 amine or outer side, 2 acyl side, 3 side chain; linkers in the order of their positions; H or OH if unused. Positions of bridges follow the written chain, without caps; N, C: chain ends. Non-standard residues stand in square brackets, D forms with d. Residues, ends and D or L forms follow the SMILES beside them. Chains are numbered I, II in the order given. No end group written: not given here. *: point of attachment. TATA = O=C(CC[*:1])N1CN(C(=O)CC[*:2])CN(C(=O)CC[*:3])C1; X2 = O=C(CCOCCOCCOCCOCCOCCn1cc(CCC(=O)[*:2])nn1)[*:1]; Hyp = O=C(O)[C@@H]1C[C@@H](O)CN1; hArg = N=C(N)NCCCC[C@H](N)C(=O)O; Cba = N[C@@H](CC1CCC1)C(=O)O; Pent4ynoyl = C#CCCC(=O)*

The EC50 is the concentration needed to bring the measured effect to its halfway point.

Data set [1] can be described thus: NK cytotoxicity assay (NK:HT1080-luc co-culture, luciferase readout). The format is cell-based, human. To be noted: NK:HT1080-luc co-culture, 24 hours, four-parameter logistic regression; FIGS. 2-4, 6-8, 10; read-out: EC50 NK cytotoxicity (tumor cell killing). As for the experimental part:
(§1) Heterotandem bicyclic peptide complexes were evaluated for NK functional readouts (cytotoxicity and cytokine secretion) in NK-tumor cell line co-cultures.
(§2) NK cells were isolated using a negative isolation kit (STEMCELL™ Technologies 17955) from the total PBMC population purified from whole blood. NK cell pellet was then resuspended in DMEM medium (Corning™ 10-013-CV) with 10% heat-inactivated fetal bovine serum (FBS; Corning® 35-011-CV), 10 mM HEPES (Gibco™ 15-630-080), and 1% Penicillin Streptomycin (Corning™ 30-002-CI), and 50 IU/mL human IL-2 (Miltenyi Biotec® 130-097-748), at a concentration of 4×10^5 cells/mL. For the NK cell cytotoxicity assays, 50 μL (2×10^4) of cell suspension was plated in the 96-well plate (Grenier® Bio One™ 655090) containing 50 μl (4×10^3) HT1080-luc cells (ATCC® CCL-121-luc2) in DMEM (Gibco™ 11875-093; with L-glutamine) with 10% heat-inactivated fetal bovine serum (FBS; Corning® 35-011-CV), 10 mM HEPES (Gibco™ 15-630-080), and 1% Penicillin Streptomycin (Corning™ 30-002-CI). […] The plates were then incubated for 24 hours at 37° C., 5% CO2. Post-incubation, plates was centrifuged at 250×g for 5 minutes and 100 μl supernatant discarded. Samples were then incubated 10 minutes with 50 μl Bright-Glo™ Luciferase Assay system (Promega™ E2620). Luminescence upon excitation at 570 nm was read using a CLARIOstar® plate-reader with MARS Data Analysis Software™. Data was fit to a four-parameter non-linear regression in GraphPad Prism™ 8.0.2 to generate an EC50 value.

Another data set deals with HT1080-luc cells. The data set is described as above. Conditions: in comparison to NK:HT1080-luc co-culture without heterotandem complex (NK-TICA). The format is cell-based, human. As for the experimental part:
as §1, §2

Data set [2] deals with NK cells co-cultured with the HT1080-luc tumor cell line. In words: Cytokine secretion assay (IFN-gamma, TNF-alpha; NK:HT1080-luc co-culture). It counts as cell-based, human. To be noted: for TNF-alpha and IFN-gamma production from NK cells: 2 nM construct, Luminex, FIG. 11. As for the experimental part:
as §1
NK cells were isolated using a negative isolation kit (STEMCELL Technologies® 17955) from the total PBMC population purified from whole blood. NK cell pellet was then resuspended in DMEM medium (Corning™ 10-013-CV) with 10% heat-inactivated fetal bovine serum (FBS; Corning® 35-011-CV), 10 mM HEPES (Gibco™ 15-630-080), and 1% Penicillin Streptomycin (Corning™ 30-002-CI), and 50 IU/mL human IL-2 (Miltenyi Biotec® 130-097-748), at a concentration of 4×10^5 cells/mL. For the NK cell cytokine secretion assay, […] NK cell in 50 μl cell suspension were plated in the 96-well U-bottom plate (Grenier Bio One™ 650180) containing 50 μl (4×10^4) HT1080-luc cells (ATCC® CCL-121-luc2) in DMEM (Gibco™ 11875-093; with L-glutamine) with 10% heat-inactivated fetal bovine serum (FBS; Corning® 35-011-CV), 10 mM HEPES (Gibco™ 15-630-080), and 1% Penicillin Streptomycin (Corning™ 30-002-CI). […] The plates were then incubated for 4 hours at 37° C., 5% CO2. Post-incubation, plates was centrifuged at 250×g for 5 minutes and 100 μl supernatant harvested. Samples were immediately stored at −20° C. or assessed for cytokine levels. Interferon-gamma or TNF-alpha levels were measured in 50 μl of collected supernatants through the Human IFN-gamma Quantikine™ ELISA kit (R&D Systems DIF50C) or Human TNF-alpha Quantikine™ ELISA kit (R&D Systems DTAOOD). Data was acquired at wavelength of 450 nm on CLARIOstar® plate-reader and was fit to a four-parameter non-linear regression in CLARIOstar® plate reader MARS Data Analysis™ software and analyzed with GraphPad Prism™ 8.0.2 software to quantify to cytokine levels. Alternatively, TNF-alpha and IFN-gamma cytokine were measured from 25 μl of collected supernatant by Luminex Assay: Human XL Cytokine Discovery Premixed Kit (R&D Systems, FCS™ 18-05) Luminex 200™ flow instrument and xPONENT™ analysis software.

The target in a further data set is NKp46 (human) (UniProt O76036). Briefly: cell-based or functional assay.
Sequence of NKp46 (human) (O76036 22-304): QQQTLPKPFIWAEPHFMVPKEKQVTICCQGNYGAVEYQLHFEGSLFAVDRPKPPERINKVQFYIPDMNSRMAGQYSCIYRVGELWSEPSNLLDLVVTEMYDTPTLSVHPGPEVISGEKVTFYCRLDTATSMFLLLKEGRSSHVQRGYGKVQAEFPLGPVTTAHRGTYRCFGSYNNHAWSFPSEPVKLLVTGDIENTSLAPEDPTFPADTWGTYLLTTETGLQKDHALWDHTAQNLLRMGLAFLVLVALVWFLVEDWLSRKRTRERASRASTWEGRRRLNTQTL
Data set [3] addresses EPH receptor A2 (ephrin type-A receptor 2) (human) (UniProt P29317). In words: cell-based or functional assay.

Sequence of EPH receptor A2 (ephrin type-A receptor 2) (human) (P29317 24-976): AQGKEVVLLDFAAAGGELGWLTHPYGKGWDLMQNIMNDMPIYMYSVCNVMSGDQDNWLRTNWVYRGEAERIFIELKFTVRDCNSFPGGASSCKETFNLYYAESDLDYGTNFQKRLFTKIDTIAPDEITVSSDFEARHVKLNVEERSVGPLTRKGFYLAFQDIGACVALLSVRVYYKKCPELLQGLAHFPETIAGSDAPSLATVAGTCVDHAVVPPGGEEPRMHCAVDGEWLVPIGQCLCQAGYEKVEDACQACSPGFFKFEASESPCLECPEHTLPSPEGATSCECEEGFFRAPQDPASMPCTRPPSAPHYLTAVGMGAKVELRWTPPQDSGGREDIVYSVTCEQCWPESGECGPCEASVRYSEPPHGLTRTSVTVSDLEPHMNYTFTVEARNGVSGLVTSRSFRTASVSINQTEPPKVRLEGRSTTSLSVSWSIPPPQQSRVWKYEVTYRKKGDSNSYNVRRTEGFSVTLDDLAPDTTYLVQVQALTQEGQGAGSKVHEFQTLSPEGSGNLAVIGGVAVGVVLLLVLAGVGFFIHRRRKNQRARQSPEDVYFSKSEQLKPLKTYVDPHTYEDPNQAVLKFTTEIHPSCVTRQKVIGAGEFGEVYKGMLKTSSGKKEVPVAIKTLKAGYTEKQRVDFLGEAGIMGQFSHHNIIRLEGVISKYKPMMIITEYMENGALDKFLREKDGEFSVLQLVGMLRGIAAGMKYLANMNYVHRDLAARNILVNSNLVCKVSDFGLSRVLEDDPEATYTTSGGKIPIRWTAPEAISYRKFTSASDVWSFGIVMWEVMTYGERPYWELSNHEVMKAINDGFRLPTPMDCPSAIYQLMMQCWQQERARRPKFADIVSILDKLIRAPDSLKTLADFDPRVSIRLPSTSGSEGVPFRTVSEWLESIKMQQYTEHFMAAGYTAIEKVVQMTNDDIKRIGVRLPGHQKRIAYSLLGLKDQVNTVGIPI

`CC(=O)N[C@H]1CSCCC(=O)N2CN3CN(C2)C(=O)CCSC[C@H](NC(=O)[C@H](CC(C)C)NC(=O)[C@H](Cc2ccc(O)cc2)NC(=O)[C@H](CC(=O)O)NC(=O)[C@@H]2CCCN2C(=O)[C@H](CC2CCC2)NC(=O)[C@H](Cc2ccc(O)cc2)NC1=O)C(=O)N[C@H](C)C(=O)N[C@@H](CC(=O)O)C(=O)N[C@@H](CCC(=O)O)C(=O)N[C@@H](Cc1ccc(O)cc1)C(=O)N[C@H](C(=O)N[C@@H](CCCCNC(=O)CCc1cn(CCOCCOCCOCCOCCNC(=O)CCOCC(COCCC(=O)NCCOCCOCCOCCOCCn2cc(CCC(=O)NCCCC[C@H](NC(=O)[C@@H]4CSCCC(=O)N5CN6CN(C5)C(=O)CCSC[C@H](NC(=O)[C@H](CC(C)C)NC(=O)[C@H](Cc5ccc(O)cc5)NC(=O)[C@H](CC(=O)O)NC(=O)[C@@H]5CCCN5C(=O)[C@H](CC5CCC5)NC(=O)[C@H](Cc5ccc(O)cc5)NC(=O)[C@@H](NC(C)=O)CSCCC6=O)C(=O)N[C@H](C)C(=O)N[C@@H](CC(=O)O)C(=O)N[C@@H](CCC(=O)O)C(=O)N[C@@H](Cc5ccc(O)cc5)C(=O)N4)C(N)=O)nn2)(COCCC(=O)NCCOCCOCCOCCOCCn2cc(CCC(=O)NCCCC[C@H](NC(=O)[C@@H]4CSCCC(=O)N5CN6CN(C5)C(=O)CCSC[C@H](NC(=O)[C@H](CC(C)C)NC(=O)[C@H](Cc5ccc(O)cc5)NC(=O)[C@H](CC(=O)O)NC(=O)[C@@H]5CCCN5C(=O)[C@H](CC5CCC5)NC(=O)[C@H](Cc5ccc(O)cc5)NC(=O)[C@@H](NC(C)=O)CSCCC6=O)C(=O)N[C@H](C)C(=O)N[C@@H](CC(=O)O)C(=O)N[C@@H](CCC(=O)O)C(=O)N[C@@H](Cc5ccc(O)cc5)C(=O)N4)C(N)=O)nn2)NC(=O)CCOCCOCCOCCOCCOCCC(=O)N[C@@H](C)C(=O)N[C@@H](CCCCNC(=N)N)C(=O)N[C@@H](CC(=O)O)C(=O)N[C@H]2CSCCC(=O)N4CN5CN(C4)C(=O)CCSC[C@H](NC(=O)[C@H](CC(C)C)NC(=O)[C@@H]4CCCN4C(=O)[C@H](CC(N)=O)NC(=O)[C@H](C(C)C)NC(=O)[C@H](CC(C)C)NC(=O)[C@@H]4C[C@@H](O)CN4C2=O)C(=O)N[C@@H](CC(C)C)C(=O)N[C@@H](Cc2c[nH]cn2)C(=O)N2CCC[C@H]2C(=O)N[C@H](CC(=O)O)C(=O)N[C@@H](Cc2c[nH]c4ccccc24)C(=O)N[C@@H](CCCCNC(=N)N)C(=O)N[C@H](C(N)=O)CSCCC5=O)nn1)C(N)=O)CSCCC3=O` [BCY21686]: in data set [1], the EC50 came to 1.3 pM. Also, the “effect on tumor cell killing by NK cells, in words” value in the data set on HT1080-luc cells was “enhanced, dose-dependent effect in tumor cell killing”. For the same molecule, in data set [2], the “TNF-alpha and IFN-gamma production from NK cells” value is listed as “Cytokine production from NK cells was observed”.
Regarding “BCY18048: EphA2 specific peptide BCY9594 linked to two NKp46 specific peptides (BCY17662) via N-(acid-PEG3)-N-bis(PEG3-azide) linker (peptide 1 A[hArg]DC[Hyp]LVNPLCLHP[dD]W[hArg]C; peptide 2 ACYLPDYLC[dK](Pent4ynoyl)DEYCA; linker I:4-I:11-I:18, II:2-II:9-II:14 via TATA; also: chain 1 N-terminus and chain 2 D-Lys(PYA) joined through N-(acid-PEG3)-N-bis(PEG3-azide) linker, two copies of chain 2)”, the “secretion of IFN-gamma and TNF-alpha by NK cells” value in data set [2] (10 nM construct, ELISA, FIG. 12) was “induced secretion of IFN-gamma and TNF-alpha”.
In the case of “BCY21687: EphA2 specific peptide BCY9594 linked to three NKp46 specific peptides (BCY17224) via Methane-N-(PEG10-acid)-Tri(MeOPr-amide-PEG10-azide) linker (peptide 1 A[hArg]DC[Hyp]LVNPLCLHP[dD]W[hArg]C; peptide 2 Ac-CY[Cba]PDYLC[dA]DEYCK(Pent4ynoyl); linker I:4-I:11-I:18, II:1-II:8-II:13 via TATA; also: chain 1 N-terminus and chain 2 K(PYA) joined through Methane-N-(PEG10-acid)-Tri(MeOPr-amide-PEG10-azide) linker, three copies of chain 2)”, the “TNF-alpha and IFN-gamma production from NK cells” value in data set [2] is reported as “Cytokine production from NK cells was observed”.
As for `CC(=O)N[C@H]1CSCCC(=O)N2CN3CN(C2)C(=O)CCSC[C@H](NC(=O)[C@H](CC(C)C)NC(=O)[C@H](Cc2ccc(O)cc2)NC(=O)[C@H](CC(=O)O)NC(=O)[C@@H]2CCCN2C(=O)[C@H](CC2CCC2)NC(=O)[C@H](Cc2ccc(O)cc2)NC1=O)C(=O)N[C@H](C)C(=O)N[C@@H](CC(=O)O)C(=O)N[C@@H](CCC(=O)O)C(=O)N[C@@H](Cc1ccc(O)cc1)C(=O)N[C@H](C(=O)N[C@@H](CCCCNC(=O)CCc1cn(CCOCCOCCOCCOCCOCCC(=O)N[C@@H](C)C(=O)N[C@@H](CCCCNC(=N)N)C(=O)N[C@@H](CC(=O)O)C(=O)N[C@H]2CSCCC(=O)N4CN5CN(C4)C(=O)CCSC[C@H](NC(=O)[C@H](CC(C)C)NC(=O)[C@@H]4CCCN4C(=O)[C@H](CC(N)=O)NC(=O)[C@H](C(C)C)NC(=O)[C@H](CC(C)C)NC(=O)[C@@H]4C[C@@H](O)CN4C2=O)C(=O)N[C@@H](CC(C)C)C(=O)N[C@@H](Cc2c[nH]cn2)C(=O)N2CCC[C@H]2C(=O)N[C@H](CC(=O)O)C(=O)N[C@@H](Cc2c[nH]c4ccccc24)C(=O)N[C@@H](CCCCNC(=N)N)C(=O)N[C@H](C(N)=O)CSCCC5=O)nn1)C(N)=O)CSCCC3=O` [BCY17225] (I: A[hArg]DC[Hyp]LVNPLCLHP[dD]W[hArg]C-NH2 / II: Ac-CY[Cba]PDYLC[dA]DEYCK-NH2; linker I:4-I:11-I:18, II:1-II:8-II:13 via TATA; linker I:N-II:14 via X2; C-terminus assumed), the EC50 in data set [1] was determined as 3.6 pM. Further, in the data set with HT1080-luc cells, the “effect on tumor cell killing by NK cells, in words” value is recorded as “enhanced, dose-dependent effect in tumor cell killing”. Also, the “TNF-alpha and IFN-gamma production from NK cells” value in data set [2] was “Cytokine production from NK cells was observed”.

B1: heterotandem bicyclic peptide complex BCY21686 (peptide)
peptide 1: A[hArg]DC[Hyp]LVNPLCLHP[dD]W[hArg]C
peptide 2: Ac-CY[Cba]PDYLC[dA]DEYCK(Pent4ynoyl)
modifications: linker I:4-I:11-I:18, II:1-II:8-II:13 via TATA; not fully specified (bridges); also: EphA2:NKp46 1:3, three copies of chain 2 on the linker, linker also given with PEG3-acid, X5, X17: HyP or HArg
In turn, B1 registered an EC50, NK cytotoxicity assay (HT1080-luc luminescence) with NKp46 (human) of 1.3 pM.

B2: heterotandem bicyclic peptide complex BCY18731 (peptide)
peptide 1: A[hArg]DC[Hyp]LVNPLCLHP[dD]W[hArg]C
peptide 2: Ac-CY[Cba]PDYLC[dA]DEYCK(Pent4ynoyl)
modifications: linker I:4-I:11-I:18, II:1-II:8-II:13 via TATA; not fully specified (bridges); also: joined via azide-PEG24-acid linker (N-terminus of chain 1 to PYA of chain 2, triazole)
Consider B2, for which the EC50, NK cytotoxicity assay (HT1080-luc luminescence) with NKp46 (human) was 18 pM.

B3: heterotandem bicyclic peptide complex BCY17226 (peptide)
peptide 1: AXDCXLVNPLCLHPDWXC
peptide 2: CYXPDYLCADEYCK
modifications: BCY17224: N-terminal acetyl; Cba (beta-cyclobutylalanine) and dA (D-Ala) within SEQ ID NO: 5; C-terminal Lys(PYA) joined to the linker azide; Ci, Cii, Ciii cyclised on TATA scaffold; BCY9594: HArg (homoarginine) as 2nd residue of the N-terminal extension; HyP, dD and HArg within SEQ ID NO: 2; Ci, Cii, Ciii cyclised on TATA scaffold; N-terminus joined to the linker
With B3, the EC50, NK cytotoxicity assay (HT1080-luc luminescence) in data set [3] is 6.1 pM.
